Tests used:
ECHOR = test: Example II: in-water applied weed control, transplanted paddy rice, greenhouse; assay type: in vivo, Echinochloa oryzoides (Ard.) Fritsch (early watergrass)
Protocol: (§1) Weed seeds or nutlets of the desired test plant species were planted in puddled soil (mud) prepared by mixing a shredded, non-sterilized mineral soil (50.5 percent silt, 25.5 percent clay, and 24 percent sand, with a pH of about 7.6 and an organic matter content of about 2.9 percent) and water at a 1:1 volumetric ratio. The prepared mud was dispensed in 365 mL aliquots into 16-ounce (oz.) non-perforated plastic pots with a surface area of 86.59 square centimeters (cm^2) leaving a headspace of 3 centimeters (cm) in each pot. Mud was allowed to dry overnight prior to planting or transplanting. Rice seeds were planted in Sun Gro MetroMix® 306 planting mixture, which typically has a pH of 6.0 to 6.8 and an organic matter content of about 30 percent, in plastic plug trays. Seedlings at the second or third leaf stage of growth were transplanted into 840 mL of mud contained in 32-oz. non-perforated plastic pots with a surface area of 86.59 cm^2 4 days prior to herbicide application. The paddy was created by filling the headspace of the pots with 2.5 to 3 cm of water. When required to ensure good germination and healthy plants, a fungicide treatment and/or other chemical or physical treatment was applied. The plants were grown for 4-22 days in a greenhouse with an approximate 14 hr photoperiod which was maintained at about 29′C during the day and 26° C. during the night. Nutrients were added as Osmocote® (19:6:12, N:P:K+ minor nutrients) at 2 g per 16-oz. pot and 4 g per 32-oz. pot. Water was added on a regular basis to maintain the paddy flood, and supplemental lighting was provided with overhead metal halide 1000-Watt lamps as necessary. The plants were employed for testing when they reached the first through fourth true leaf stage.
(§2) Treatments consisted of the acid or esters of 4-amino-3-chloro-5-fluoro-6-(4-chloro-2-fluoro-3-methoxy-phenyl)pyridine-2-carboxylic acid (compound A) each formulated as an SC (suspension concentrate) and various herbicidal components alone and in combination. Forms of compound A were applied on an acid equivalent basis.
(§3) The herbicidal components were applied on an active ingredient basis and included very long chain fatty acid (VLCFA) synthesis-inhibiting and fatty acid/lipid synthesis-inhibiting herbicides acetochlor (technical grade material), acetochlor+dichlormid formulateded as Topnotch®, pretilachlor (technical grade material), butachlor formulated as Butachlor EC, fentrazamide formulated as Fentrazamide EC, thiobencarb formulated as Bolero® 8EC, cafenstrole formulated as Himeadow® WP or Lapost® Flowable, benfuresate formulated as Full Shot®, anilofos (technical grade material), mefenacet (technical grade material), molinate (technical grade material), and thenylchlor (technical grade material).
(§4) Treatment requirements for each compound or herbicidal component were calculated based upon the rates being tested, the concentration of active ingredient or acid equivalent in the formulation, an application volume of 2 mL per component per pot, and an application area of 86.59 cm^2 per pot.
(§5) For formulated compounds, a measured amount was placed in an individual 100 or 200 mL glass vial and was dissolved in a volume of 1.25% (v/v) Agri-Dex® crop oil concentrate to obtain application solutions.
(§6) For technical grade compounds, a weighed amount was placed in an individual 100 to 200 mL glass vial and was dissolved in a volume of acetone to obtain concentrated stock solutions. […] The concentrated stock solutions obtained were diluted with an equivalent volume of an aqueous mixture containing 2.5% (v/v) crop oil concentrate so that the final application solutions contained 1.25% (v/v) crop oil concentrate.
(§7) Applications were made by injecting with a pipetter appropriate amounts of the application solutions, individually and sequentially, into the aqueous layer of the paddy. Control plants were treated in the same manner with the solvent blank. […]

LEFCH [1] = test: as above; assay type: in vivo, Leptochloa chinensis (L.) Nees (Chinese sprangletop); settings: 19 DAA
Protocol: as §1, §2, §3, §4, §5, §6, §7

BRAPP = test: Example I: postemergence foliar-applied weed control, direct seeded rice weeds, greenhouse; assay type: in vivo; settings: 20 DAA
Source text: (§8) Seeds or nutlets of the desired test plant species were planted in a soil matrix prepared by mixing a loam or sandy loam soil (e.g., 28.6 percent silt, 18.8 percent clay, and 52.6 percent sand, with a pH of about 5.8 and an organic matter content of about 1.8 percent) and calcareous grit in an 80 to 20 ratio. The soil matrix was contained in plastic pots with a volume of 1 quart and a surface area of 83.6 square centimeters (cm^2). When required to ensure good germination and healthy plants, a fungicide treatment and/or other chemical or physical treatment was applied. The plants were grown for 8-22 days in a greenhouse with an approximate 14 hr photoperiod which was maintained at about 29° C. during the day and 26° C. during the night. Nutrients (Peters Excel® 15-5-15 5-Ca 2-Mg and iron chelate) were applied in the irrigation solution as needed and water was added on a regular basis. Supplemental lighting was provided with overhead metal halide 1000-Watt lamps as necessary. The plants were employed for testing when they reached the first through fourth true leaf stage.
as §2, with “(Compound A),” for “(compound A)”, “concentrate),” for “concentrate)”
(§9) Other herbicidal components were applied on an active ingredient basis and included very long chain fatty acid (VLCFA) synthesis-inhibiting and fatty acid/lipid synthesis-inhibiting herbicides acetochlor (technical grade material), acetochlor+dichlormid formulated as Topnotch®, pretilachlor (technical grade material), butachlor formulated as Butachlor EC, fentrazamide formulated as Fentrazamide EC, thiobencarb formulated as Bolero® 8EC, cafenstrole formulated as Himeadow® WP or Lapost® Flowable, benfuresate formulated as Full Shot®, dimethenamid-P formulated as Outlook®, indanofan (technical grade material), flufenacet formulated as Define® DF, mefenacet (technical grade material), S-metolachlor formulated as Dual® II Magnum, pethoxamid formulated as Successor® 600, and pyroxasulfone (technical grade material).
(§10) Treatment requirements were calculated based upon the rates being tested, the concentration of active ingredient or acid equivalent in the formulation, and a 12 mL application volume at a rate of 187 L/ha.
(§11) For treatments comprised of formulated compounds, measured amounts of compounds were placed individually in 25 mL glass vials and diluted in a volume of 1.25% (v/v) Agri-Dex® crop oil concentrated to obtain 12× stock solutions. […] Application solutions were prepared by adding an appropriate amount of each stock solution (e.g., 1 mL) and diluted to the appropriate final concentrations with the addition of 10 mL of an aqueous mixture of 1.25% (v/v) crop oil concentrate so that the final spray solutions contained 1.25+/−0.05% (v/v) crop oil concentrate.
(§12) For treatments comprised of technical compounds, weighed amounts can be placed individually in 25 mL glass vials and dissolved in a volume of 97:3 v/v acetone/DMSO to obtain 12× stock solutions. […] Application solutions can be prepared by adding an appropriate amount of each stock solution (e.g., 1 mL) and diluted to the appropriate final concentrations with the addition of 10 mL of an aqueous mixture of 1.5% (v/v) crop oil concentrate so that the final spray solutions contain 1.25% (v/v) crop oil concentrate. When technical materials are used, the concentrated stock solutions can be added to the spray solutions so that the final acetone and DMSO concentrations of the application solutions are […], respectively. […]

ECHCG [2] = test: Example I: postemergence foliar-applied weed control, greenhouse; assay type: in vivo, Echinochloa crus-galli (L.) Beauv. (barnyardgrass); settings: 20 DAA
Source text: as §8
as §2, with “(Compound A),” for “(compound A)”, “concentrate),” for “concentrate)”
as §9, §10, §11, §12

ECHCO = test: as above; assay type: in vivo, Echinochloa colona (L.) Link (junglerice); settings: for Visual Weed Control Obs: 20 DAA; for Visual Weed Control (%) - 19 DAA ECHCO Obs: foliar
Source text: as §8
as §2, with “(Compound A),” for “(compound A)”, “concentrate),” for “concentrate)”
as §9, §10, §11, §12

LEFCH [3] = test: as above; assay type: in vivo, Leptochloa chinensis (L.) Nees (Chinese sprangletop); settings: for Visual Weed Control Obs: 20 DAA; for Visual Weed Control (%) - 19 DAA LEFCH Obs: foliar
Source text: as §8
as §2, with “(Compound A),” for “(compound A)”, “concentrate),” for “concentrate)”
as §9, §10, §11, §12

IPOHE = test: as above; assay type: in vivo, Ipomoea hederacea Jacq. (ivyleaf morningglory); settings: 20 DAA
Source text: as §8
as §2, with “(Compound A),” for “(compound A)”, “concentrate),” for “concentrate)”
as §9, §10, §11, §12

ECHCG [4] = test: Example II: in-water applied weed control, transplanted paddy rice, greenhouse; assay type: in vivo, Echinochloa crus-galli (L.) Beauv. (barnyardgrass)
Protocol: as §1, §2, §3, §4, §5, §6, §7

CYPRO = test: as above; assay type: in vivo, Cyperus rotundus L. (purple nutsedge)
Protocol: as §1, §2, §3, §4, §5, §6, §7

`COc1ccsc1CN(C(=O)CCl)c1c(C)cccc1C` [Thenylchlor, 2-chloro-N-(2,6-dimethylphenyl)-N-[(3-methoxy-2-thienyl)methyl]acetamide] was tested, and the pest or weed control at 135 g/ha (ECHOR; Echinochloa oryzoides, 456 h, 135 gai/ha, 19 DAA, read-out: Visual Weed Control ECHOR Obs) was 35%, the pest or weed control at 270 g/ha (ECHOR; Echinochloa oryzoides, 456 h, 270 gai/ha, 19 DAA, read-out: Visual Weed Control ECHOR Obs) was 90% and the “Visual Weed Control LEFCH Obs” value (LEFCH [1]; 135 gai/ha) was 15%. The “Visual Weed Control LEFCH Obs” value (LEFCH [1]; 270 gai/ha) was 25%.

In the case of `CCCCOCN(C(=O)CCl)c1c(CC)cccc1CC` [Butachlor, N-(butoxymethyl)-2-chloro-N-(2,6-diethylphenyl)acetamide], the “Visual Weed Control Obs” value (BRAPP; 112.5 gai/ha) is reported as 0%, the “Visual Weed Control Obs” value (BRAPP; 225 gai/ha) is reported as 0% and the “Visual Weed Control Obs” value (BRAPP; 450 gai/ha) is reported as 0%. The “Visual Weed Control Obs” value (ECHCG [2]; 112.5 gai/ha) was 0%, the “Visual Weed Control Obs” value (ECHCG [2]; 225 gai/ha) was 0% and the “Visual Weed Control Obs” value (ECHCG [2]; 450 gai/ha) was 0%. For the same compound, the “Visual Weed Control Obs” value (ECHCO; 112.5 gai/ha) was 0%, the “Visual Weed Control Obs” value (ECHCO; 225 gai/ha) was 0% and the “Visual Weed Control Obs” value (ECHCO; 450 gai/ha) was 0%. The “Visual Weed Control Obs” value (LEFCH [3]; 112.5 gai/ha) was 0%, the “Visual Weed Control Obs” value (LEFCH [3]; 225 gai/ha) was 0% and the “Visual Weed Control Obs” value (LEFCH [3]; 450 gai/ha) was 0%. For the same compound, the “Visual Weed Control Obs” value (IPOHE; 112.5 gai/ha) was 20%, the “Visual Weed Control Obs” value (IPOHE; 450 gai/ha) was 30% and the “Visual Weed Control (%) - 21 DAA ECHCG Obs” value (ECHCG [4]; 225 gai/ha) was 40%. The “Visual Weed Control (%) - 21 DAA ECHCG Obs” value (ECHCG [4]; 450 gai/ha) was 20%, the “Visual Weed Control (%) - 21 DAA ECHOR Obs” value (ECHOR; 225 gai/ha) was 0% and the “Visual Weed Control (%) - 21 DAA ECHOR Obs” value (ECHOR; 450 gai/ha) was 20%. For the same compound, the “Visual Weed Control (%) - 21 DAA CYPRO Obs” value (CYPRO; 225 gai/ha) was 0% and the “Visual Weed Control (%) - 21 DAA CYPRO Obs” value (CYPRO; 450 gai/ha) was 0%.

With `CCC1(CC2(c3cccc(Cl)c3)CO2)C(=O)c2ccccc2C1=O` (racemic) [Indanofan, (RS)-2-[[2-(3-chlorophenyl)oxiranyl]methyl]-2-ethyl-1H-indene-1,3(2H)-dione] the “Visual Weed Control (%) - 19 DAA ECHCO Obs” value (ECHCO; 37.5 gai/ha) was 0%, the “Visual Weed Control (%) - 19 DAA ECHCO Obs” value (ECHCO; 75 gai/ha) was 0% and the “Visual Weed Control (%) - 19 DAA ECHCO Obs” value (ECHCO; 150 gai/ha) was 35%. For the same compound, the “Visual Weed Control (%) - 19 DAA LEFCH Obs” value (LEFCH [3]; 37.5 gai/ha) was 0%, the “Visual Weed Control (%) - 19 DAA LEFCH Obs” value (LEFCH [3]; 75 gai/ha) was 0% and the “Visual Weed Control LEFCH Obs” value (LEFCH [1]; 37.5 gai/ha) was 10%. For the same compound, the “Visual Weed Control LEFCH Obs” value (LEFCH [1]; 75 gai/ha) was 20% and the “Visual Weed Control LEFCH Obs” value (LEFCH [1]; 150 gai/ha) was 95%.

From patent US20130310256A1, “HERBICIDAL COMPOSITIONS COMPRISING 4-AMINO-3-CHLORO-5-FLUORO-6-(4-CHLORO-2-FLUORO-3-METHOXYPHENYL) PYRIDINE-2-CARBOXYLIC ACID OR A DERIVATIVE THEREOF AND VLCFA AND LIPID SYNTHESIS INHIBITING HERBICIDES” (DOW AGROSCIENCES LLC, priority 2008, published 2013)
